Publication PMC6757289, “Design and Characterization of SGK3-PROTAC1, an Isoform Specific SGK3 Kinase PROTAC Degrader” (ACS Chemical Biology, 2019)

Molecular target: T1, SGK1 (Homo sapiens, UniProt O00141)
T1 sequence (O00141 1-431): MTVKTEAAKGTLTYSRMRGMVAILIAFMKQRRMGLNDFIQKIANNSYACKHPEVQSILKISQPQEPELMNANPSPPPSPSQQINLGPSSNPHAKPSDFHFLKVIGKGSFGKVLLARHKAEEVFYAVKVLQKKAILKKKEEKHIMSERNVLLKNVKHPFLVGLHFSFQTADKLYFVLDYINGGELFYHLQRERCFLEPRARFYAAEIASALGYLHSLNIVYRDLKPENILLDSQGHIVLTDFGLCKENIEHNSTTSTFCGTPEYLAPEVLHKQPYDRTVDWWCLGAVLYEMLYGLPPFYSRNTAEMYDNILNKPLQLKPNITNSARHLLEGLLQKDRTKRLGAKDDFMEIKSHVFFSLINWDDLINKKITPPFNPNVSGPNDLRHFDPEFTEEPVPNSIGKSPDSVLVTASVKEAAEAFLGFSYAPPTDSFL
Experiment: SGK1 degradation in JIMT1 cells, immunoblot
Format: cell-based
Conditions: JIMT1, up to 3 μM
Protocol: Figure 3 Characterization of cellular activities of SGK3-PROTAC1 and cisSGK3-PROTAC1. (A) HEK293 cells were first treated for 8 h with 0.03–3 μM SGK3-PROTAC1 and cisSGK3-PROTAC1. One hour before lysis, cells were treated with 3 μM AZD5363. Lysates were subjected to immunoblot analysis with the indicated antibodies. […] Lysates were subjected to immunoblot analysis with the indicated antibodies. (C) HEK293 cells were treated for up to 48 h with SGK3-PROTAC1 (0.3 μM), and lysates were analyzed by immunoblot analysis using the indicated antibodies. (D) HEK293 cells were treated for 24 h with SGK3-PROTAC1. Cells were washed three times with DMEM to wash out the compound, and recovery of SGK3 expression protein was analyzed by immunoblot analysis. (E–G) As in A except that CAMA-1 (E), ZR-75-1 (F), and JIMT-1 (G) cells were employed rather than HEK293 cells. […]
All cell treatments were carried out as described in figure legends, to a final DMSO concentration of 0.1% (v/v). Lysates were quantified. […] Lysate concentration was quantified by Bradford Assay, and 10 μg of lysate was loaded in the LDS sample buffer for SDS-PAGE electrophoresis on Novex 4–12% Bis–Tris gels. […] The signal was produced with near-infrared secondary antibodies and detected using a Licor Biosciences Odyssey System, and the signal was quantified in Image Studio Lite.

## Cc1ccc(F)c(S(=O)(=O)Nc2ccc(-c3nc(OC[C@H]4CN(CCCCCCOCCOCCOCC(=O)N[C@H](C(=O)N5C[C@H](O)C[C@H]5C(=O)NCc5ccc(-c6scnc6C)cc5)C(C)(C)C)CCO4)c4cn[nH]c4n3)cc2)c1 [SGK3-PROTAC1]
  degradation of SGK1: failed to induce degradation of SGK1
